≈ marks a conversion by molar mass, not a printed value. Read-outs that look alike come from different tables or passages of the source.

For orientation: IC50 means the midpoint of a concentration-inhibition curve.

Type in all cases: cell-based
Test [1] deals with P. falciparum NF54 strain. The experiment in a line: Activity against P. falciparum, 3H-hypoxanthine incorporation assay. The note with it: Plasmodium falciparum, NF54.
Test [2] relates to L. donovani strain MHOM/ET/67/L82. The test can be described thus: Activity against L. donovani axenic amastigotes (Alamar Blue). The note with it: Leishmania donovani. The protocol:
(§1) For all the susceptibility assays with parasites and cells, each drug was tested in duplicate and each assay was repeated at least once. • a. Activity against Trypanosoma brucei rhodesiense STIB900. This stock was isolated in 1982 from a human patient in Tanzania and after several mouse passages cloned and adapted to axenic culture conditions (Baltz et al 1985) Minimum Essential Medium (50 µl) supplemented with 25 mM HEPES, 1g/l additional glucose, 1% MEM non-essential amino acids (100x), 0.2 mM 2-mercaptoethanol, 1 mM Na-pyruvate and 15% heat inactivated horse serum was added to each well of a 96-well microtiter plate. Serial drug dilutions of eleven 3-fold dilution steps covering a range from 100 to 0.002 µg/ml were prepared. Then 4x10^3 bloodstream forms of T. b. rhodesiense STIB 900 in 50 µl was added to each well and the plate incubated at 37 °C under a 5 % CO2 atmosphere for 70 h. 10 µl Alamar Blue (resazurin, 12.5 mg in 100 ml double-distilled water) was then added to each well and incubation continued for a further 2-4 h (Raz et al 1997). Then the plates were read with a Spectramax Gemini XS microplate fluorometer (Molecular Devices Cooperation, Sunnyvale, CA, USA) using an excitation wave length of 536 nm and an emission wave length of 588 nm. The IC50 values were calculated by linear regression (Huber 1993) from the sigmoidal dose inhibition curves using SoftmaxPro software (Molecular Devices Cooperation, Sunnyvale, CA, USA). Melarsoprol (Arsobal Sanofi-Aventis, received from WHO) is used as control. • b. Activity against T. cruzi. Rat skeletal myoblasts (L-6 cells) were seeded in 96-well microtitre plates at 2000 cells/well in 100 µL RPMI 1640 medium with 10% FBS and 2 mM I-glutamine. After 24 h the medium was removed and replaced by 100 µl per well containing 5000 trypomastigote forms of T. cruzi Tulahuen strain C2C4 containing the β-galactosidase (Lac Z) gene (Buckner et al. 1996). After 48 h the medium was removed from the wells and replaced by 100 µl fresh medium with or without a serial drug dilution of eleven 3-fold dilution steps covering a range from 100 to 0.002 µg/ml. After 96 h of incubation the plates were inspected under an inverted microscope to assure growth of the controls and sterility. Then the substrate CPRG/Nonidet (50 µl) was added to all wells. A color reaction developed within 2-6 h and could be read photometrically at 540 nm. Data were analyzed with the graphic programme Softmax Pro (Molecular Devices), which calculated IC50 values by linear regression (Huber 1993) from the sigmoidal dose inhibition curves. […] Activity against L. donovani axenic amastigotes. Amastigotes of L. donovani strain MHOM/ET/67/L82 were grown in axenic culture at 37 °C in SM medium (Cunnigham et al. 1977) at pH 5.4 supplemented with 10% heat-inactivated fetal bovine serum under an atmosphere of 5% CO2 in air. One hundred microlitres of culture medium with 10^5 amastigotes from axenic culture with or without a serial drug dilution were seeded in 96-well microtitre plates. Serial drug dilutions of eleven 3-fold dilution steps covering a range from 90 to 0.002 µg/ml were prepared. After 70 h of incubation the plates were inspected under an inverted microscope to assure growth of the controls and sterile conditions. 10 µl of Alamar Blue (12.5 mg resazurin dissolved in 100 ml distilled water) (Mikus and Steverdig. 2000) were then added to each well and the plates incubated for another 2 h. Then the plates were read with a Spectramax Gemini XS microplate fluorometer (Molecular Devices Cooperation, Sunnyvale, CA, USA) using an excitation wave length of 536 nm and an emission wave length of 588 nm. Data were analyzed using the software Softmax Pro (Molecular Devices Cooperation, Sunnyvale, CA, USA). Decrease of fluorescence (= inhibition) was expressed as percentage of the fluorescence of control cultures and plotted against the drug concentrations. From the sigmoidal inhibition curves the IC50 values were calculated. • d.
Background: Resazurin is reduced to fluorescent resorufin, in cell work by metabolically active cells.

Test [3] relates to T. cruzi Tulahuen strain C2C4. The test can be described thus: Activity against T. cruzi in L-6 cells (beta-galactosidase, CPRG). To be noted: Trypanosoma cruzi, TULAHUEN, L6. The protocol:
as §1

Test [4] relates to Trypanosoma brucei rhodesiense STIB900. The experiment in a line: Activity against Trypanosoma brucei rhodesiense STIB900 (Alamar Blue). The note with it: Trypanosoma brucei. Here is the method: as §1
Setting [5] is: mean of replicates, read-out: P.falc NF54 IC50 mean.
[6] abbreviates: replicate 1, erythrocytic stages, read-out: P.falc NF54 IC50 repl1.
[7] abbreviates: replicate 2, erythrocytic stages, read-out: P.falc NF54 IC50 repl2.
Setting [8] is: mean of replicates, read-out: L.don. ax am IC50 mean.
Where [9] appears, read: replicate 1, axenic amastigotes, pH 5.4, 70 h, read-out: L.don. ax am IC50 repl1.
Where [10] appears, read: mean of replicates, read-out: T.cruzi. IC50 mean.
[11] abbreviates: replicate 1, L-6 cells, 96 h, read-out: T.cruzi. IC50 repl1.
[12] abbreviates: replicate 2, L-6 cells, 96 h, read-out: T.cruzi. IC50 repl2.
Where [13] appears, read: 70 h, replicate 1, bloodstream forms, 70 h, read-out: T.b.rhod. IC50 repl1.
[14] abbreviates: 70 h, replicate 2, bloodstream forms, 70 h, read-out: T.b.rhod. IC50 repl2.
The mark [15] stands for this setting: mean of replicates, read-out: T.b.rhod. IC50 mean.

Take `CCOC(=O)/C=C/C(=O)[C@H](CCc1ccccc1)NC(=O)[C@H](Cc1ccccc1)NC(=O)OCc1ccccc1` [FGA-44]: the IC50 in test [1] (setting [5]) was determined as 6.82 µg/mL (≈ 12.6 µM); in test [1] (setting [6]), 7.19 µg/mL (≈ 13.3 µM); in test [1] (setting [7]), 6.44 µg/mL (≈ 11.9 µM); in test [2] (setting [8]), 6.87 µg/mL (≈ 12.7 µM); in test [2] (setting [9]), 6.87 µg/mL (≈ 12.7 µM); in test [3] (setting [10]) it was 10.9 µg/mL (≈ 20.1 µM). Besides, the IC50 is 7.74 µg/mL (≈ 14.3 µM) in test [3] (setting [11]); 14.1 µg/mL (≈ 26 µM) in test [3] (setting [12]); 0.446 µg/mL (≈ 0.822 µM) in test [4] (setting [13]); 0.564 µg/mL (≈ 1.04 µM) in test [4] (setting [14]); 0.505 µg/mL (≈ 0.931 µM) in test [4] (setting [15]).

Take `CCOC(=O)/C=C/C(=O)[C@H](CCc1ccccc1)NC(=O)[C@H](CC(C)C)NC(=O)OCc1ccccc1` [FGA-47]: the IC50 in test [1] (setting [5]) turned out to be 0.821 µg/mL (≈ 1.61 µM); in test [1] (setting [6]) it was 0.921 µg/mL (≈ 1.81 µM); in test [1] (setting [7]), 0.72 µg/mL (≈ 1.42 µM); in test [2] (setting [8]), 0.048 µg/mL (≈ 0.0944 µM); in test [2] (setting [9]), 0.044 µg/mL (≈ 0.0865 µM); in test [2] (replicate 2, axenic amastigotes, pH 5.4, 70 h, read-out: L.don. ax am IC50 repl2), 0.052 µg/mL (≈ 0.102 µM). In addition, the IC50 was found to be 3.63 µg/mL (≈ 7.14 µM) in test [3] (setting [10]); 5.17 µg/mL (≈ 10.2 µM) in test [3] (setting [11]); 2.09 µg/mL (≈ 4.11 µM) in test [3] (setting [12]); 1.68 µg/mL (≈ 3.3 µM) in test [4] (setting [13]); 0.675 µg/mL (≈ 1.33 µM) in test [4] (setting [14]); 1.18 µg/mL (≈ 2.32 µM) in test [4] (setting [15]).

The values are drawn from patent EP2975033A1, “Improved cysteine-protease inhibitors” (Universitat Jaume I, priority 2014, dated 2016).
